Results as given in ChEMBL document CHEMBL1909046, “DrugMatrix in vitro pharmacology data”.
Where a SMILES comes first, the peptide text is derived from it. Bridges are numbered along the chain shown (N, C = ends). [ ]: non-standard residue; d: D form. The star is where a group is joined. Threoninol(2S,3R) = C[C@@H](O)[C@H](CO)N*

How the values were obtained:
Nitric oxide synthase 1 = Nitric oxide synthase 1 (Rattus norvegicus, UniProt P29476); assay type: tissue-based, Cerebellum; further: in other assays of this panel Not Active means under 50% inhibition at 10 µM
Chain of Nitric oxide synthase 1 (P29476 whole entry): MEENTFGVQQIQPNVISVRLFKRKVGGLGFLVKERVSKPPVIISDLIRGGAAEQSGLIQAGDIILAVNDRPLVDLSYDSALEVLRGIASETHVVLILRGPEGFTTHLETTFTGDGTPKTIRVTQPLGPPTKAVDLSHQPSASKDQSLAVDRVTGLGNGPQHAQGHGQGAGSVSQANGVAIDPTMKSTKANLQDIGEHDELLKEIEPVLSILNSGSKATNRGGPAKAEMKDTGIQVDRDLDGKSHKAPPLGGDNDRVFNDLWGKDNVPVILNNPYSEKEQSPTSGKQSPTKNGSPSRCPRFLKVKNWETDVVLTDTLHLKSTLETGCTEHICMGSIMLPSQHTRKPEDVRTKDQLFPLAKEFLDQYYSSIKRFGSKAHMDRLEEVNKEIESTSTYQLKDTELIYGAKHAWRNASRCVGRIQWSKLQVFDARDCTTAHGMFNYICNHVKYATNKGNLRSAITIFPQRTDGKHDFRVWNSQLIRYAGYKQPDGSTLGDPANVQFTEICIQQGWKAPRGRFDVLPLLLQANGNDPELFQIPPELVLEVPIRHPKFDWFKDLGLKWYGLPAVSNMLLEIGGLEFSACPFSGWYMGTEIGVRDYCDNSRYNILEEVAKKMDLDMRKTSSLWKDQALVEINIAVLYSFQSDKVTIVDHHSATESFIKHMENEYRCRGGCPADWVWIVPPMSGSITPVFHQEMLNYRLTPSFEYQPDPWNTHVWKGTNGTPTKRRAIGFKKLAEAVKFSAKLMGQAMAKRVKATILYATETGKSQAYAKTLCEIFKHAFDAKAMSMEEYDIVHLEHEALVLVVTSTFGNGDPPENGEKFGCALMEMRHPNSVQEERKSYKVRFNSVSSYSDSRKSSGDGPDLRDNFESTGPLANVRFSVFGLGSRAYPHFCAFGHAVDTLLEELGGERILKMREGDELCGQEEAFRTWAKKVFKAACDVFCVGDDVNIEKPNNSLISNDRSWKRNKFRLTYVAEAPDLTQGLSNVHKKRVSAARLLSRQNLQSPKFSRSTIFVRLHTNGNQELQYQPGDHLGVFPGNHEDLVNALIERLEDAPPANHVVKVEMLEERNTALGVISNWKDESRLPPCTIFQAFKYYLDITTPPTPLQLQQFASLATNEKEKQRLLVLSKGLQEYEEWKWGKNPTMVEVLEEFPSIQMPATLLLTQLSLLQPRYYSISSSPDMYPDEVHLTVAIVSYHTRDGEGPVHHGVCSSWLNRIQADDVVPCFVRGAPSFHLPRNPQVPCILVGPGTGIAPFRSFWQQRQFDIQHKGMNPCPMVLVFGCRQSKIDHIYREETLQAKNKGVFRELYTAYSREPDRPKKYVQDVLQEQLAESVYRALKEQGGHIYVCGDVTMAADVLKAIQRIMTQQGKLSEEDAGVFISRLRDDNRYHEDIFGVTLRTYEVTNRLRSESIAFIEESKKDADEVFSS

[1] = DRUGMATRIX: Purinergic P2X radioligand binding (ligand: [3H] alpha, beta-Methylene-ATP); assay type: cell membranes, Oryctolagus cuniculus, New Zealand albino, Urinary bladder, Membrane; details: Not Active = under 50% inhibition at 10 µM
Substance-P receptor = Substance-P receptor (Homo sapiens, UniProt P25103); assay type: cell membranes, Membrane; details: cho; further: in other assays of this panel Not Active means under 50% inhibition at 10 µM
Chain of Substance-P receptor (P25103 whole entry): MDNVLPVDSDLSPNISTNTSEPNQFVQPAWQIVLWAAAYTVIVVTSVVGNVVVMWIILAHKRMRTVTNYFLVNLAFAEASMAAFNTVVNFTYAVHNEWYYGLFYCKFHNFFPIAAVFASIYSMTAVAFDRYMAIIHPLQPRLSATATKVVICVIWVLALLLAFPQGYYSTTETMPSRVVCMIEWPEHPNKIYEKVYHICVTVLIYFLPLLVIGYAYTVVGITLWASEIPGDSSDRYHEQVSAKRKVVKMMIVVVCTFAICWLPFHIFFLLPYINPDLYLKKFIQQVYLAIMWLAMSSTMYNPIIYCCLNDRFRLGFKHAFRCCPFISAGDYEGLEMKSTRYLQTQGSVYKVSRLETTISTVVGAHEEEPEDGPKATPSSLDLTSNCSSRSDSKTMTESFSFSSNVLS

Cytochrome P450 3A4 = Cytochrome P450 3A4 (Homo sapiens, UniProt P08684); details: bti-tn-5b1-4; further: in other assays of this panel Not Active means under 50% inhibition at 10 µM
Chain of Cytochrome P450 3A4 (P08684 whole entry): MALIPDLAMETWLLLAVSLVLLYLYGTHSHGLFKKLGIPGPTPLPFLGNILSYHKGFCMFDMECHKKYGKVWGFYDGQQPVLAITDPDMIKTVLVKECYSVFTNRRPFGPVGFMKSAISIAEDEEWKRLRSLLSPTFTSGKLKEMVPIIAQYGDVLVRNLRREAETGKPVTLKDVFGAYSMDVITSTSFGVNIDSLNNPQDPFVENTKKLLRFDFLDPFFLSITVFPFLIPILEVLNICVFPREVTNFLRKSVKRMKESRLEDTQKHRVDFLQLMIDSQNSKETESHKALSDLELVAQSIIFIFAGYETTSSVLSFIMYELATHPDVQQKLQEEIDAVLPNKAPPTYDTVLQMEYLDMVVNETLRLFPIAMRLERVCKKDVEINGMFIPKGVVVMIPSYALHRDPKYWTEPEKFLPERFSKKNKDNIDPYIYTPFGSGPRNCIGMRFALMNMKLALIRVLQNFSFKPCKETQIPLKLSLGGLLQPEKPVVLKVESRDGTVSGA

Melanocortin receptor 4 = Melanocortin receptor 4 (Homo sapiens, UniProt P32245); assay type: cell membranes, Membrane; details: hek293; further: in other assays of this panel Not Active means under 50% inhibition at 10 µM
Chain of Melanocortin receptor 4 (P32245 whole entry): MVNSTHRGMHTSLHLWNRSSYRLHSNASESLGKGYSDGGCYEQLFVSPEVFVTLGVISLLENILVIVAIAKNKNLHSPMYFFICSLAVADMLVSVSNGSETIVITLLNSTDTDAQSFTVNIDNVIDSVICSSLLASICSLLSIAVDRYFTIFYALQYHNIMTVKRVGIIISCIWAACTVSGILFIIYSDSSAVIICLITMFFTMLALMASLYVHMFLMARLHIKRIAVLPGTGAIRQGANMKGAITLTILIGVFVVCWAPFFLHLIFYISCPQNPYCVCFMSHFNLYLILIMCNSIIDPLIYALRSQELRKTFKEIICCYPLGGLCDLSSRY

Caspase-1 = target: T1, Caspase-1 (Homo sapiens, UniProt P29466); parameters: species or system Escherichia coli
T1 sequence (P29466 whole entry): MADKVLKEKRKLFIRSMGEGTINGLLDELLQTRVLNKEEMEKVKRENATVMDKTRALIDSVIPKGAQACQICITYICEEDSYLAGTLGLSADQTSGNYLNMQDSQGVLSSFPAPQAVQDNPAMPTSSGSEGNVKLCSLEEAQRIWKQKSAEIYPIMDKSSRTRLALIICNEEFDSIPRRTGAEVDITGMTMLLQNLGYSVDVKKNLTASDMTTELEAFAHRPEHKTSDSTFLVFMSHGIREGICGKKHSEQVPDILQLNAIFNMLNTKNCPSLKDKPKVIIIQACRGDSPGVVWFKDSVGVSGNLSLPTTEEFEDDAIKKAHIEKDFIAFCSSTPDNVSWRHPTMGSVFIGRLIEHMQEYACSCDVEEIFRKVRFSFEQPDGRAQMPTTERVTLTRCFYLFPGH

[2] = target: 5-hydroxytryptamine receptor 2B (Homo sapiens, UniProt P41595); assay type: cell membranes, CHO-K1, Membrane; details: cho-k1; further: in other assays of this panel Not Active means under 50% inhibition at 10 µM
Chain of 5-hydroxytryptamine receptor 2B (P41595 whole entry): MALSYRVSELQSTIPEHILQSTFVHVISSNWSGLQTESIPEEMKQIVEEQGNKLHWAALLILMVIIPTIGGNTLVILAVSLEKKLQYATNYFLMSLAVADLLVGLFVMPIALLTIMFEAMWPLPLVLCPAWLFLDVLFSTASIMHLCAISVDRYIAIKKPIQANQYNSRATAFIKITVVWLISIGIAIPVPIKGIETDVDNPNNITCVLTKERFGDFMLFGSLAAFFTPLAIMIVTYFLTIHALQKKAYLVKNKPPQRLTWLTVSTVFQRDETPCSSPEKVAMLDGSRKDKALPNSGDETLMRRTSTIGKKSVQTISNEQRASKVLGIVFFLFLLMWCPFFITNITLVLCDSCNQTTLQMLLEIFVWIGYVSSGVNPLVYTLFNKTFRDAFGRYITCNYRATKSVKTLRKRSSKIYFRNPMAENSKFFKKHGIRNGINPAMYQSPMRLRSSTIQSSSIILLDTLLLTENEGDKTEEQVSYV

C[C@]12CC[C@@H]3c4ccc(O)cc4CC[C@H]3[C@@H]1CC[C@@H]2O [ESTRADIOL]
Not Active: IC50 (Nitric oxide synthase 1) | IC50 [1] | Ki [1] | IC50 (Substance-P receptor) | IC50 (Cytochrome P450 3A4) | Ki (Cytochrome P450 3A4) | IC50 (Melanocortin receptor 4) | IC50 (Caspase-1) | IC50 [2]

CCOC(=O)C1=C(C)NC(C)=C(C(=O)OC)C1c1cccc([N+](=O)[O-])c1 (centres undefined) [NITRENDIPINE]
Not Active: IC50 (Nitric oxide synthase 1) | IC50 [1] | Ki [1] | IC50 (Substance-P receptor) | IC50 (Cytochrome P450 3A4) | Ki (Cytochrome P450 3A4) | IC50 (Melanocortin receptor 4) | IC50 (Caspase-1) | IC50 [2]

CN(C)/N=N/c1[nH]cnc1C(N)=O [DACARBAZINE]
Not Active: IC50 (Nitric oxide synthase 1) | IC50 [1] | Ki [1] | IC50 (Substance-P receptor) | IC50 (Cytochrome P450 3A4) | Ki (Cytochrome P450 3A4) | IC50 (Melanocortin receptor 4) | IC50 (Caspase-1) | IC50 [2]

COc1ccc2c(c1)[C@]13CCCC[C@@H]1[C@H](C2)N(C)CC3 [DEXTROMETHORPHAN]
Not Active: IC50 (Nitric oxide synthase 1) | IC50 [1] | Ki [1] | IC50 (Substance-P receptor) | IC50 (Cytochrome P450 3A4) | Ki (Cytochrome P450 3A4) | IC50 (Melanocortin receptor 4) | IC50 (Caspase-1) | IC50 [2]

COc1ccccc1C(=O)N1CCC(Cc2ccccc2)CC1
Not Active: IC50 (Nitric oxide synthase 1) | IC50 [1] | Ki [1] | IC50 (Substance-P receptor) | IC50 (Cytochrome P450 3A4) | Ki (Cytochrome P450 3A4) | IC50 (Melanocortin receptor 4) | IC50 (Caspase-1) | IC50 [2]

C=C1CC[C@H](O)C/C1=C/C=C1\CCC[C@]2(C)[C@@H]([C@H](C)CCCC(C)C)CC[C@@H]12 [CHOLECALCIFEROL]
Not Active: IC50 (Nitric oxide synthase 1) | IC50 [1] | Ki [1] | IC50 (Substance-P receptor) | IC50 (Cytochrome P450 3A4) | Ki (Cytochrome P450 3A4) | IC50 (Melanocortin receptor 4) | IC50 (Caspase-1) | IC50 [2]

COc1cc2c(c3oc(=O)c4c(c13)CCC4=O)[C@@H]1C=CO[C@@H]1O2 [AFLATOXIN]
Not Active: IC50 (Nitric oxide synthase 1) | Ki (Nitric oxide synthase 1) | IC50 [1] | Ki [1] | IC50 (Substance-P receptor) | Ki (Substance-P receptor) | IC50 (Cytochrome P450 3A4) | Ki (Cytochrome P450 3A4) | IC50 (Melanocortin receptor 4) | Ki (Melanocortin receptor 4) | IC50 (Caspase-1) | Ki (Caspase-1) | IC50 [2] | Ki [2]

CC(C)Cc1ccc(C(C)C(=O)O)cc1 (centres undefined) [IBUPROFEN]
Not Active: IC50 (Nitric oxide synthase 1) | IC50 [1] | Ki [1] | IC50 (Substance-P receptor) | IC50 (Cytochrome P450 3A4) | Ki (Cytochrome P450 3A4) | IC50 (Melanocortin receptor 4) | IC50 (Caspase-1) | IC50 [2]

Cc1ncc([N+](=O)[O-])n1CCO [METRONIDAZOLE]
Not Active: IC50 (Nitric oxide synthase 1) | IC50 [1] | Ki [1] | IC50 (Substance-P receptor) | IC50 (Cytochrome P450 3A4) | Ki (Cytochrome P450 3A4) | IC50 (Melanocortin receptor 4) | IC50 (Caspase-1) | IC50 [2]

C[C@@H](O)[C@H](CO)NC(=O)[C@@H]1CSSC[C@H](NC(=O)[C@H](N)Cc2ccccc2)C(=O)N[C@@H](Cc2ccccc2)C(=O)N[C@H](Cc2c[nH]c3ccccc23)C(=O)N[C@@H](CCCCN)C(=O)N[C@@H]([C@@H](C)O)C(=O)N1 (H-[dF]CF[dW]KTC-{Threoninol(2S,3R)}; disulfide 2-7)
Not Active: IC50 (Nitric oxide synthase 1) | IC50 [1] | Ki [1] | IC50 (Substance-P receptor) | IC50 (Cytochrome P450 3A4) | Ki (Cytochrome P450 3A4) | IC50 (Melanocortin receptor 4) | IC50 (Caspase-1) | IC50 [2]

COc1ccc2[nH]c([S+]([O-])Cc3ncc(C)c(OC)c3C)nc2c1 (centres undefined) [OMEPRAZOLE]
Not Active: IC50 (Nitric oxide synthase 1) | IC50 [1] | Ki [1] | IC50 (Substance-P receptor) | IC50 (Cytochrome P450 3A4) | Ki (Cytochrome P450 3A4) | IC50 (Melanocortin receptor 4) | IC50 (Caspase-1) | IC50 [2]
